In patent publication US20260028390A1, “ALPHA1-ANTITRYPSIN FOR USE IN THE TREATMENT OF DISEASES OR DISORDERS OF THE NERVOUS SYSTEM SUCH AS CHRONIC INFLAMMATORY DEMYELINATING POLYNEUROPATHY” (Ageronix SA, priority 2022, published 2026):
Where “and” joins values, the source holds several entries; their conditions need not be identical. Equal values may be shown once.

Experiments:
[1] = system: CMT1A mice B6.Cg-Tg(PMP22)C3Fbas/J; test: Sciatic nerve electrophysiology (CMAP, NCV), CMT mice treated with AAT 180 mg/kg/day sc; format: in vivo, mouse
Method: CMT MOUSE MODEL: Non-humanized CMT1A mice B6.Cg-Tg(PMP22)C3Fbas/J (three copies of the PMP22 gene), three groups of 8 animals each.
DOSAGE: 180 mg/kg/day non-clinical grade AAT (Sigma)
ADMINISTRATION: Subcutaneous (SC) (bi-daily injection of 90 mg/kg)
(§1) Animals were received at 6 weeks of age and housed under controlled conditions for the duration of the study. The study comprised two groups of 8 transgenic mice (CMT mice) each and one group of 8 age matched wild type (WT) C57B16 mice, serving as positive control. Animals were assigned to the following subcutaneous treatments twice daily at 7:00 AM and 7:00 PM for 2 weeks, starting from 8 weeks and up to 10 weeks of age: • Wild-type (WT, no disease) mice receiving vehicle, 0.9% NaCl (positive control) • CMT1A mice receiving vehicle, 0.9% NaCl (negative control) • CMT1A mice receiving AAT at 90 mg/kg per injection (daily dose 180 mg/kg)
(§2) The efficacy parameters included: • neuromuscular performance (rotarod latency to fall and grip strength test), • sciatic nerve electrophysiology (CMAP amplitude and NCV) • cytokine (IL-6 and TNFα), as well as NfL analysis • sciatic nerve histology (number of axons and axonal diameter),
On the first day of treatment (Day 1), the neuromuscular and performance of animals was tested with a rotarod test and a grip strength test, as well as sciatic nerve electrophysiology test, which measured the compound muscle action potential (CMAP) and the nerve conduction velocity (NCV). After the last treatment on Day 15, these tests were repeated. Animals were then left untreated for 2 additional weeks to evaluate the duration of the treatment effect. Following the 2-week treatment-free period until 12 weeks of age (Day 30), the behavioural and electrophysiological tests were repeated.

[2] = system: CMT1A mice B6.Cg-Tg(PMP22)C3Fbas/J; test: Rotarod latency to fall, CMT mice treated with AAT 180 mg/kg/day sc; format: in vivo, mouse
[3] = system: plasma IL-6; test: Plasma IL-6, CMT mice treated with AAT 180 mg/kg/day sc; format: in vivo, mouse
From the text: as §1, §2
As supportive information for the mode of action of AAT in CMT, plasma concentration of interleukin 6 (IL-6) and TNFα were measured at Day 1 (8 weeks), Day 15 (10 weeks) and Day 30 (12 weeks). At the same timepoints, plasma levels of the biomarker of nerve damage, NfL were determined.

[4] = system: IL-6; test: Human IL-6 immunoassay on SH-SY5Y cell supernatant; format: cell-based; conditions: medium from cells treated with AAT vs 6-OHDA induced, not significant
Method: Cells were treated for 24 hours with the neurotoxin 6-hydroxydopamine (6-OHDA, Sigma Aldrich 162957) at 50, 100 μM concentrations alone or in combination with AAT 25 μM (AAT plasma derived, Sigma Aldrich batch A9024). Cells treated with AAT alone or in combination with 6-OHDA for 24 hours, were then incubated with fresh AAT for additional 24 hours. Control cells were treated with PBS.
Human 11-6 immunoassay (R&D D6050) was performed on cells supernatant. Briefly, 40000 cells were plated in 24-well plate and treated the day after as described in paragraph “Cells and treatment”. At the end of the treatment, cells were washed with PBS and incubated with 2% FBS medium for 24 hours, then cell culture supernatants were collected and centrifuged to remove particulates. Assay procedure was performed as described by manufactured instructions, on standard and samples duplicates. Absorbance was measured at 450 nm using SpectraMax iD3 Microplate Reader. A standard curve was prepared from seven IL-6 standard dilutions and IL-6 sample concentrations determined.

[5] = system: plasma NfL; test: Plasma NfL quantification, CIDP mouse model; format: in vivo; conditions: for Plasma NfL, Mean Diff., CIDP + vehicle vs. CIDP + hAAT / Plasma NfL, Mean Diff., Sham negative control vs. CIDP + hAAT: Bonferroni's multiple comparisons test; for Plasma NfL concentration (Mean ± SD): CIDP mice; for NfL conc: per animal, listed as hAAT
Method: C57BL/6 mice were received at 8 weeks of age and housed under controlled conditions for the duration of the study. Three groups of 4 animals each were assigned to the following subcutaneous treatments twice daily at 7:00 AM and 7:00 PM for 2 weeks, from 20 to 35 days after the start of disease induction: • Wild type (WT) mice receiving the vehicle, 0.9% NaCl (positive control) • CIDP mice receiving the vehicle, 0.9% NaCl (negative control) • CIDP mice receiving human AAT (AAT), 50 mg/kg per injection
On the day preceding disease induction (Day 1), on the first (Day 20) and on the last (Day 35) treatment day, animals were subjected to blood samplings for the determination of neurofilament light chain (NfL), tumour necrosing factor alpha (TNFα) and TMPRSS5 levels, as described in FIG. 20. In addition, plasma levels of AAT were evaluated on the last treatment day.

[6] = system: CMT1A mice B6.Cg-Tg(PMP22)C3Fbas/J; test: Grip strength, CMT mice treated with AAT 180 mg/kg/day sc; format: in vivo, mouse; conditions: 8 weeks old, CMT + hAAT 180 mg/kg/day SC, individual animal
[7] = 8 weeks old (baseline, Day 1), CMT1A + AAT
[8] = 8 weeks old, CMT + hAAT 180 mg/kg/day SC, 8 mice
[9] = 8 weeks old, CMT + hAAT 180 mg/kg/day SC, individual mouse
[10] = 10 weeks old (Day 15, after 2 weeks AAT 90 mg/kg sc twice daily)
[11] = 12 weeks of age, after 2-week treatment-free period
[12] = 12 weeks old (Day 30, after 2-week treatment-free period)
[13] = CMT mice, AAT 90 mg/kg sc twice a day, 8 to 10 weeks of age, end of treatment
[14] = baseline (6 weeks old), CMT + hAAT, individual animal

Substance: alpha1-antitrypsin (AAT) protein
- Conduction velocity, group MEAN ([1]; 6 weeks old, CMT + hAAT, 8 mice): 26.266 m/s
- Compound muscle action potential (Mean ± SD) [1, 7]: 3.76 ± 0.50 mV
- Nerve conduction velocity (Mean ± SD) [1, 7]: 15.96 ± 1.54 m/s
- Amplitude, group MEAN [1, 8]: 5.492 mV
- Conduction velocity, group MEAN [1, 8]: 16.946 m/s
- Amplitude [1, 9]: 4.874 mV and 5.376 mV and 5.322 mV and 9.084 mV and 6.115 mV and 3.753 mV and 5.277 mV and 4.139 mV
- Conduction velocity [1, 9]: 18.707 m/s and 16.462 m/s and 10.029 m/s and 19.200 m/s and 17.615 m/s and 9.648 m/s and 25.446 m/s and 18.460 m/s
- T1 distal [1, 9]: 3.916 ms and 3.259 ms and 3.449 ms and 4.291 ms and 3.773 ms and 8.247 ms and 7.467 ms and 11.449 ms
- T2 proximal [1, 9]: 4.718 ms and 4.170 ms and 4.945 ms and 5.072 ms and 4.624 ms and 9.802 ms and 8.057 ms and 12.262 ms
- Compound muscle action potential (Mean ± SD) [1, 10]: 5.41 ± 0.71 mV
- Nerve conduction velocity (Mean ± SD) [1, 10]: 21.47 ± 6.07 m/s
- NCV vs untreated group [1, 11]: non-significantly different
- CMAP vs untreated CMT animals ([1]; 12 weeks of age, after 2-week treatment-free period, P<0.05): significantly higher
- Compound muscle action potential (Mean ± SD) [1, 12]: 2.94 ± 0.65 mV
- Nerve conduction velocity (Mean ± SD) [1, 12]: 10.50 ± 1.73 m/s
- compound muscle action potential amplitude vs CMT mice not treated with AAT [1, 13]: significant increase
- nerve conduction velocity vs CMT mice not treated with AAT [1, 13]: significant increase
- rotarod latency to fall vs CMT mice not treated with AAT [2, 13]: significant increase
- Rotarod latency, group Mean ([2]; baseline (6 weeks old), CMT + hAAT, 8 animals): 71.46 s
- Rotarod latency, Mean/animal [2, 14]: 53.43 s and 52.98 s and 66.74 s and 56.96 s and 66.75 s and 65.56 s and 106.66 s and 102.61 s
- Rotarod latency, set 1 [2, 14]: 53.47 s and 57.35 s and 69.94 s and 62.11 s and 65.03 s and 66.86 s and 110.28 s and 93.16 s
- Rotarod latency, set 2 [2, 14]: 57.11 s and 51.61 s and 67.40 s and 54.79 s and 72.92 s and 68.48 s and 109.55 s and 105.36 s
- Rotarod latency, set 3 [2, 14]: 49.72 s and 49.96 s and 62.87 s and 53.98 s and 62.30 s and 61.35 s and 100.14 s and 109.32 s
- Plasma IL-6 (Mean ± SD) [3, 7]: 133.48 ± 31.45 pg/mL
- Plasma IL-6 (Mean ± SD) [3, 10]: 69.78 ± 11.76 pg/mL
- positive effect on IL-6 plasma levels [3, 11]: remained significant
- Plasma IL-6 (Mean ± SD) [3, 12]: 120.90 ± 6.47 pg/mL
- plasma levels of IL-6 ([3]; CMT mice, AAT 90 mg/kg sc twice a day, P<0.01): reduced
- IL-6 in cell supernatant [4]: less concentration
- Plasma NfL, Mean Diff., CIDP + vehicle vs. CIDP + hAAT ([5]; Day 1): 0.04828
- Plasma NfL, Mean Diff., Sham negative control vs. CIDP + hAAT ([5]; Day 1): 0.01878
- Plasma NfL, Mean Diff., CIDP + vehicle vs. CIDP + hAAT ([5]; Day 20): 0.2088
- Plasma NfL, Mean Diff., Sham negative control vs. CIDP + hAAT ([5]; Day 20): -2.85 ng/mL
- Plasma NfL, Mean Diff., CIDP + vehicle vs. CIDP + hAAT ([5]; Day 35): 1.01 ng/mL
- Plasma NfL, Mean Diff., Sham negative control vs. CIDP + hAAT ([5]; Day 35): -1.88 ng/mL
- plasma NfL concentration compared to the CIDP+vehicle treated group ([5]; CIDP + AAT, day 35): significant decrease
- Plasma NfL concentration (Mean ± SD) ([5]; Day 1): 0.29 ± 0.11 ng/mL
- Plasma NfL concentration (Mean ± SD) ([5]; Day 20): 3.12 ± 0.86 ng/mL
- Plasma NfL concentration (Mean ± SD) ([5]; Day 35): 2.30 ± 0.27 ng/mL
- NfL conc, group MEAN ([5]; Day 1): 0.29 ng/mL
- NfL conc, group MEAN ([5]; Day 20): 3.12 ng/mL
- NfL conc, group MEAN ([5]; Day 35): 2.30 ng/mL
- NfL conc ([5]; Day 1 (before model induction)): 0.3654 ng/mL and 0.2865 ng/mL and 0.3798 ng/mL and 0.1412 ng/mL
- NfL conc ([5]; Day 20 (before compound treatment)): 3.7596 ng/mL and 2.7654 ng/mL and 3.8846 ng/mL and 2.0831 ng/mL
- NfL conc ([5]; Day 35): 2.4447 ng/mL and 1.9017 ng/mL and 2.3497 ng/mL and 2.5056 ng/mL
- Grip strength, Mean/animal [6]: 4.83 NEWTONS and 2.73 NEWTONS and 2.97 NEWTONS and 4.09 NEWTONS and 5.05 NEWTONS and 7.59 NEWTONS and 5.53 NEWTONS and 5.68 NEWTONS
- Grip strength, set 1 [6]: 3.97 NEWTONS and 2.15 NEWTONS and 3.47 NEWTONS and 4.13 NEWTONS and 4.85 NEWTONS and 8.17 NEWTONS and 6.20 NEWTONS and 4.87 NEWTONS
- Grip strength, set 2 [6]: 5.37 NEWTONS and 4.34 NEWTONS and 2.22 NEWTONS and 4.58 NEWTONS and 3.84 NEWTONS and 5.69 NEWTONS and 4.40 NEWTONS and 5.39 NEWTONS
- Grip strength, set 3 [6]: 5.14 NEWTONS and 1.69 NEWTONS and 3.21 NEWTONS and 3.55 NEWTONS and 6.47 NEWTONS and 8.92 NEWTONS and 5.99 NEWTONS and 6.77 NEWTONS
